Experimental data reported in patent publication US12509449B2, “Anthelmintic compounds comprising a quinoline structure” (Intervet Inc., priority 2019, dated 2025).

Tests used:
[1] = test system: Dirofilaria immitis L1; assay: In vitro assay Dirofilaria immitis L1 (microfilaria) motility; type: cell-based; details: 72 h, incubation 3 days, read-out: EC50 Dirofilaria immitis L1, reduction in motility
Experimental: (§1) Approximately 500 D. immitis microfilaria were added to a microtiter plate containing a nutrient medium and the test compound in DMSO at varying concentrations. After incubation for 3 days, activity was evaluated as reduction in motility as compared to DMSO as negative control. Compounds were tested in duplicates. Based on the concentration response curves EC50 values were calculated.

[2] = target: T1, human Maxi K channel (BK channel), KCNMA1 (KCa1.1) and beta1 (KCNMB1) subunits (Homo sapiens, UniProt Q12791); assay: Agonistic activity at the human Maxi K channel (BK channel), membrane potential (FLIPR) in transfected CHO K1 cells; type: cell-based; details: membrane potential dye, 70 mM KCl
T1 construct: expressed in transfected cells; host or cells: CHO K1
T1 sequence (Q12791 1-1178 isoform Q12791-5): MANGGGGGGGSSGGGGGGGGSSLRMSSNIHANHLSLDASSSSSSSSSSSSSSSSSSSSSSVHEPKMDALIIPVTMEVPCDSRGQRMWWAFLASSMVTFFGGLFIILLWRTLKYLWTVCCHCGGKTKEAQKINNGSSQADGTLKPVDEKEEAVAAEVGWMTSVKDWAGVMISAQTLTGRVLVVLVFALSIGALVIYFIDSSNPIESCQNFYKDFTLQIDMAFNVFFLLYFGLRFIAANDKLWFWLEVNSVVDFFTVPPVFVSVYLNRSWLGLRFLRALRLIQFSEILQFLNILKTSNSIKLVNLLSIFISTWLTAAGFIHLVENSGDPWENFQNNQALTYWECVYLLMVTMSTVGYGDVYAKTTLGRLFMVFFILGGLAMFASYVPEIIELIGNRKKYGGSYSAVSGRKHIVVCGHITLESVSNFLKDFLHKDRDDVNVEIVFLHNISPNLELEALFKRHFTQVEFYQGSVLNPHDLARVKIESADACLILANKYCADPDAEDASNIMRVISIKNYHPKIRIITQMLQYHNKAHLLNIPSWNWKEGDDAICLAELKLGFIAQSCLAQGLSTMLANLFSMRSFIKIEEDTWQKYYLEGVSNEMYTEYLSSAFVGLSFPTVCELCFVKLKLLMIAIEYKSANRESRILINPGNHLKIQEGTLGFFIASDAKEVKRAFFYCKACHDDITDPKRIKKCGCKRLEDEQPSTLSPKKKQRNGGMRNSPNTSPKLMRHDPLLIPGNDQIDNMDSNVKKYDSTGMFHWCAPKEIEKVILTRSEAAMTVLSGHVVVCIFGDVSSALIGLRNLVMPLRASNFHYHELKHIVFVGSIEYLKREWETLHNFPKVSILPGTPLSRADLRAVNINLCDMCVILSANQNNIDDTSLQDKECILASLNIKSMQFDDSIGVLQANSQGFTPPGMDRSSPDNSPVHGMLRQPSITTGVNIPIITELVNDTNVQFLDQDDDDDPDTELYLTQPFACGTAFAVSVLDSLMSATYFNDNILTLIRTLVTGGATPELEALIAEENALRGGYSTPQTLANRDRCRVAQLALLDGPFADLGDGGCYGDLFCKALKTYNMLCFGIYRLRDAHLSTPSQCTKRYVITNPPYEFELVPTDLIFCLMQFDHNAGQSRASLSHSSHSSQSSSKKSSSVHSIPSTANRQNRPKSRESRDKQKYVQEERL
T1 sequence (Q16558 whole entry partner): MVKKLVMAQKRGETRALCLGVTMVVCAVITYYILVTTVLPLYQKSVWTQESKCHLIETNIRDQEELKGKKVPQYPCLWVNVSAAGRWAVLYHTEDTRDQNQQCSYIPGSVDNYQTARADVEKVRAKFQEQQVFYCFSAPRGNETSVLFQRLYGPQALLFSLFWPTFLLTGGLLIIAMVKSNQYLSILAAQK
Text: A CHO K1 cell line was stably transfected with the KCNMA1 (KCa1.1, U11058) and beta1 (KCNMB1) subunits of the human Maxi K channel (Ponte et al, Molecular Pharmacology 2012, 81(4), 567-577).
The complete measurement takes 150 s.

[3] = test system: Oesophagostumum dentatum L4; assay: In vitro assay Oesophagostumum dentatum larval stage 4, minimum effective concentration; type: cell-based; details: 20 larvae per well, microscopic examination; read-out: MEC (minimum effective concentration) against Oesophagostumum dentatum L4
Text: (§2) […] galli (intestinal roundworm of chicken), larval stage 3 (“L3”); and Oesophagostumum dentatum (nodular worm of swine), larval stages 3 and 4 (respectively “L3” and “L4”) where suspended in a nutrient medium and distributed to 96 well plates with 20 larvae per well. The wells were spiked DMSO solutions of the compounds with declining concentration.

[4] = test system: Ascaridia galli L3; assay: In vitro assay Ascaridia galli larval stage 3, minimum effective concentration; type: cell-based; details: 20 larvae per well, microscopic examination, read-out: MEC (minimum effective concentration) against Ascaridia galli L3
Text: as §2

[5] = test system: Acanthocheilonema viteae L1; assay: In vitro assay Acanthocheilonema viteae L1 (microfilaria) motility; type: cell-based; details: 72 h, incubation 3 days, read-out: EC50 Acanthocheilonema viteae L1, reduction in motility
Experimental: as §1, with “A. viteae” for “D. immitis”

[6] = test system: Oesophagostumum dentatum L3; assay: In vitro assay Oesophagostumum dentatum larval stage 3, minimum effective concentration; type: cell-based; details: 20 larvae per well, microscopic examination; read-out: MEC (minimum effective concentration) against Oesophagostumum dentatum L3
Text: as §2

[7] = test system: Dirofilaria immitis L4; assay: In vitro assay Dirofilaria immitis L4 motility; type: cell-based; details: 72 h, 10 larvae L4, incubation 3 days, read-out: EC50 Dirofilaria immitis L4, reduction in motility
Experimental: as §1, with “10 larvae L4 of” for “Approximately 500”, “immitis” for “immitis microfilaria”

[8] = target: Caenorhabditis elegans slo-1a (Caenorhabditis elegans, UniProt Q95V25); assay: Agonistic activity at C. elegans Slo-1a, membrane potential (FLIPR) in transfected CHO K1 cells; details: EC50 agonistic activity at C. elegans Slo-1a, membrane potential dye, 70 mM KCl
Chain of Caenorhabditis elegans slo-1a (Q95V25 whole entry): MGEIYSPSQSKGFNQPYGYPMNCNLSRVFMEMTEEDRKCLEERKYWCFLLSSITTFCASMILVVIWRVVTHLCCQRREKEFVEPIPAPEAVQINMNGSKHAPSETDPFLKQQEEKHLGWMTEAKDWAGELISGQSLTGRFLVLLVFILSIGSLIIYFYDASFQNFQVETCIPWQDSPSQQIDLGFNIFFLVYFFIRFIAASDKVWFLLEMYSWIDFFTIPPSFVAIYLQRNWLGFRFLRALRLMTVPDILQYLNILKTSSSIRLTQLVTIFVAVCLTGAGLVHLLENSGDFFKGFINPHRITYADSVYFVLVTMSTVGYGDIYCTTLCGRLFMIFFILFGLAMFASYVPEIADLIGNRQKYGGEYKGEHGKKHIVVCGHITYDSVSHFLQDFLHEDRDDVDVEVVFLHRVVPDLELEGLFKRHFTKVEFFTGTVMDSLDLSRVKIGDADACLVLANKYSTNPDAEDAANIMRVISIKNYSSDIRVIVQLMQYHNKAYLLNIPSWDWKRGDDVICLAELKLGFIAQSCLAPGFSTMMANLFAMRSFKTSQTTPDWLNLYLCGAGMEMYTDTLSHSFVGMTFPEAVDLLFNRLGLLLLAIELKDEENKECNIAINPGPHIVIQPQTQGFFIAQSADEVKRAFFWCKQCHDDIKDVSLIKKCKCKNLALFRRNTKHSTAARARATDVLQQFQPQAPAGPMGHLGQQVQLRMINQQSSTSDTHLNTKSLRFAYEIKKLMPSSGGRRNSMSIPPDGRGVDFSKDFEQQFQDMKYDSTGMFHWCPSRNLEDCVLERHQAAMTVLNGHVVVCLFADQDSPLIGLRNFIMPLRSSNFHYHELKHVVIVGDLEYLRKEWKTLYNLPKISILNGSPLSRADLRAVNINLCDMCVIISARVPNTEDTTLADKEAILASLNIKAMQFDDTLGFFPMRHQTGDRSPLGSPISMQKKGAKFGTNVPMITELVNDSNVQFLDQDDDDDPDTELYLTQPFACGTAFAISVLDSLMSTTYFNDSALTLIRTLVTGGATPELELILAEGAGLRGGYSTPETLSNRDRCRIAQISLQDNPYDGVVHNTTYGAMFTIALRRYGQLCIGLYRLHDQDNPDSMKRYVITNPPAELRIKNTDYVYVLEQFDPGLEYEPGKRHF
Experimental: A CHO K1 cell line stably transfected with the Caenorhabditis elegans slo-1a (accession no Y51A2D.19a) was established. Cells were seeded in microtiter plates (black 384-well MTP, clear bottom) in a concentration of 10,000 cells/well in 25 μl medium and cultured for 20 to 24 hours at 37° C. and 5% CO2. The cell medium was removed, and the cells washed with Tyrode's solution. 1 of FMP-dye Blue-Tyrode's was added to each well and incubated at room temperature for 30 min.
For the membrane potential measurements, the prepared cell plate and substance plate were placed in the FLIPR Tetra (Molecular Devices). The baseline measurement of the fluorescence was stared for 20 sec (Exc. 510-545 nm, Emm. 565-625 nm). The cells were depolarized by addition of 25p of the diluted test compounds (final assay concentration of the KCl-Tyrode: 70 mM KCl, 2 mM CaCl2), 1 mM MgCl2, 0.8 mM NaH2PO4, 5 mM Glucose, 28 mM Hepes, pH 7.4, including the voltage sensitive dye). The complete measurement takes 150 s.
EC50 values were determined in triplicate utilizing compound dilution series. The data were determined at least in two independent tests. The data were proceeded by using the ActivityBase XE Runner software (IDBS) for curve fitting and calculation of the half-maximal effective concentration.

[9] = test system: Haemonchus contortus; assay: In vivo efficacy against Haemonchus contortus in jirds; set-up: species or system Haemonchus contortus in jirds (Meriones unguiculatus); details: necropsy three days after treatment
Experimental: Compounds according to this invention were tested in vivo using Haemonchus contortus in jirds (Meriones unguiculatus). The jirds were orally infected with approximately 1500 third-stage larvae of Haemonchus contortus. Ten days after infection, the jirds in the treatment groups were treated once either orally or subcutaneously with compounds at a dose of […]. For treatment, compounds were dissolved in a mixture of 10% Transcutol, 10% Cremophor EL and 80% physiological sodium chloride solution. Three days after treatment, the jirds were necropsied, and the larvae burden in the stomach was determined. The efficacy was defined as the reduction of the mean larvae count in the infected jirds of the treatment group in comparison to the infected jirds in an untreated control group (negative control).

`COc1c(NC(=O)C(C)c2ccccc2)cnc2c(-c3cccc(Cl)c3Cl)cccc12` (stereo not drawn) [Compound 11] showed an EC50 [1] of less than 10 µM and an EC50 [2] greater than 30 µM.

`CC(C(=O)Nc1cnc2c(-c3cccc(Cl)c3Cl)cccc2c1N(C)C)c1cccc(Cl)c1` (stereo not drawn) [Compound 28] gave a minimal effective concentration [3] of no more than 50 µM, a minimal effective concentration [4] of no more than 50 µM and an EC50 [1] of less than 10 µM. For the same molecule, the EC50 [2] was greater than 30 µM.

`CC(C)Oc1c(NC(=O)C2CCOc3ccccc32)cnc2c(-c3cc(Cl)cc(Cl)c3)c(F)ccc12` (stereo not drawn) [Compound 127] showed a minimal effective concentration [4] of no more than 50 µM, an EC50 [5] of less than 10 µM and a minimal effective concentration [6] of no more than 50 µM. For the same molecule, the EC50 [2] was greater than 30 µM.

`CN(C)c1c(NC(=O)Cc2ccccc2)cnc2c(-c3cc(Cl)cc(Cl)c3)cccc12` [Compound 3] gave an EC50 [7] of less than 1 µM, a minimal effective concentration [4] of no more than 50 µM and a minimal effective concentration [6] of no more than 50 µM. For the same molecule, the EC50 [8] was less than 10 µM and the EC50 [2] was greater than 30 µM.

Molecule `O=C(Nc1cnc2c(-c3cc(Cl)cc(Cl)c3)cccc2c1O)C1CCCc2ccccc21` (stereo not drawn) [Compound 63] has an EC50 [1] of less than 10 µM and an EC50 [2] greater than 30 µM.

`COc1cccc(C(C)C(=O)Nc2cnc3c(-c4cccc(Cl)c4Cl)cccc3c2N(C)C)c1` (stereo not drawn) [Compound 29] showed a minimal effective concentration [3] of no more than 50 µM, a minimal effective concentration [4] of no more than 50 µM and an EC50 [1] of less than 10 µM. It also gave an EC50 [8] of less than 10 µM and an EC50 [2] greater than 30 µM.

For `CCN(C(=O)C1CCOc2ccccc21)c1cnc2c(-c3cccc(Cl)c3Cl)cccc2c1N1CCOCC1` (stereo not drawn) [Compound 159], the minimal effective concentration [4] was no more than 50 µM, the EC50 [5] was less than 10 µM and the EC50 [2] was greater than 30 µM.

With `CCN(C(=O)C1CCOc2ccccc21)c1cnc2c(-c3cc(Cl)cc(Cl)c3)cccc2c1N(C)C` (stereo not drawn) [Compound 162] the minimal effective concentration [4] was no more than 50 µM, the EC50 [5] was less than 10 µM and the minimal effective concentration [6] was no more than 50 µM. The EC50 [2] was greater than 30 µM.

`CC(C)Oc1c(NC(=O)c2cccc3ccccc23)cnc2c(-c3cc(Cl)cc(Cl)c3)c(F)ccc12` [Compound 147] showed an EC50 [5] of less than 10 µM, a minimal effective concentration [6] of no more than 50 µM and an EC50 [2] greater than 30 µM.

Work on `CCN(C)c1c(NC(=O)C2CCCc3ccccc32)cnc2c(-c3cccc(Cl)c3Cl)cccc12` (stereo not drawn) [Compound 98] yielded an EC50 [5] of less than 10 µM and an EC50 [2] greater than 30 µM.

For `O=C(Nc1cnc2c(-c3cccc(Cl)c3Cl)c(F)ccc2c1N1CCOCC1)c1cccc2ccccc12` [Compound 151], the “reduction of the Haemonchus contortus count” value ([9]; administered orally once at 10 mg/kg bw) was “at least 80%” and the “reduction of the Haemonchus contortus count” value ([9]; administered subcutaneously once at 10 mg/kg bw) was “at least 80%”.

In the case of `CCN(C(=O)C1CCOc2ccccc21)c1cnc2c(-c3cc(Cl)cc(Cl)c3)cccc2c1N1CCOCC1` (stereo not drawn) [Compound 163], the minimal effective concentration [3] is reported as no more than 50 µM, the EC50 [5] is reported as less than 10 µM and the EC50 [2] is reported as greater than 30 µM.
